Converted amounts (≈) assume the structure as drawn. Read-outs that look alike come from different tables or passages of the source.
Tested on: C. glabrata isolates
Assay: Broth microdilution susceptibility (CLSI M27-A3) at different medium pH
Format: cell-based, Candida glabrata
Conditions: Nakaseomyces glabratus, 24 h; for MIC50: read-out: MIC50; for MIC90: read-out: MIC90
Experimental: Ten strains each of C. glabrata and C. albicans vaginal isolates were tested. The strains were obtained from recent clinical trial patients with vulvovaginal candidiasis (VVC) prior to treatment. Candida strains were obtained from the Mycology Reference Library (MRL) at Case Western Reserve University School of Medicine, Ohio, United States.
Susceptibility testing was performed using a broth microdilution method, according to CLSI M27-A3 guidelines (CLSI. 2008. Reference Method for Broth Dilution Antifungal Susceptibility Testing of Yeasts; Approved Standard—Third Edition. Clinical and Laboratory Standards Institute, CLSI document M27-A3). Antifungals and concentrations tested were SCY-078 and micafungin (both at concentrations within the range of 0.015 to 8 μg/ml) and fluconazole (at concentrations within the range of 0.125 to 64 μg/ml). A 0.1-ml C. albicans and C. glabrata inoculum of 0.5-2.5×10^3 blastospores/ml in RPMI 1640 medium was added to each microdilution well. ATCC strains of Candida parapsilosis and Candida krusei QC isolates were also included concurrently to ensure quality control. Antifungal susceptibility testing was carried out for each isolate in RPMI 1640 at pH 7 (to mimic RPMI medium used in testing the susceptibility of yeast by the CLSI M-27A3 document), pH 5.7, and pH 4.5 (to mimic the pH of the vaginal cavity) by adjusting the pH of the media using NaOH or HCl. […] Agents Chemother., 43: 1383-1386 (1999).
[…] SCY-078 powder was manufactured by Avista, Laboratories, NC. Micafungin and fluconazole were sourced from LGM Pharma.

[1] = pH 7, 50% inhibition, pH 7.0, 24 h, 10 vaginal isolates
[2] = pH 7, 100% inhibition, pH 7.0, 24 hours, 10 isolates

CC(C)[C@@H](C)[C@@]1(C)CC[C@]2(C)[C@H]3CC[C@@H]4[C@@]5(COC[C@]4(C)[C@@H](OC[C@](C)(N)C(C)(C)C)[C@H](n4ncnc4-c4ccncc4)C5)C3=CC[C@@]2(C)[C@@H]1C(=O)O [SCY-078]
MIC (pH 5.72, C. glabrata MRL 32626, pH 5.72, 24 hours, read-out: MIC (50% inhibition)): 0.5 µg/mL (≈ 0.685 µM)
MIC (pH 5.72, C. glabrata MRL 32626, pH 5.72, 24 hours, read-out: MIC (100% inhibition)): 1 µg/mL (≈ 1.37 µM)
MIC (pH 5.72, C. glabrata MRL 32993, pH 5.72, 24 hours, read-out: MIC (50% inhibition)): 0.5 µg/mL (≈ 0.685 µM)
MIC (pH 5.72, C. glabrata MRL 32993, pH 5.72, 24 hours, read-out: MIC (100% inhibition)): 1 µg/mL (≈ 1.37 µM)
MIC (pH 5.72, C. glabrata MRL 33204, pH 5.72, 24 hours, read-out: MIC (50% inhibition)): 0.5 µg/mL (≈ 0.685 µM)
MIC (pH 5.72, C. glabrata MRL 33204, pH 5.72, 24 hours, read-out: MIC (100% inhibition)): 1 µg/mL (≈ 1.37 µM)
MIC (pH 5.72, C. glabrata MRL 33960, pH 5.72, 24 hours, read-out: MIC (50% inhibition)): 0.5 µg/mL (≈ 0.685 µM)
MIC (pH 5.72, C. glabrata MRL 33960, pH 5.72, 24 hours, read-out: MIC (100% inhibition)): 1 µg/mL (≈ 1.37 µM)
MIC (pH 5.72, C. glabrata MRL 33961, pH 5.72, 24 hours, read-out: MIC (50% inhibition)): 0.5 µg/mL (≈ 0.685 µM)
MIC (pH 5.72, C. glabrata MRL 33961, pH 5.72, 24 hours, read-out: MIC (100% inhibition)): 1 µg/mL (≈ 1.37 µM)
MIC (pH 5.72, C. glabrata MRL 34339, pH 5.72, 24 hours, read-out: MIC (50% inhibition)): 0.5 µg/mL (≈ 0.685 µM)
MIC (pH 5.72, C. glabrata MRL 34339, pH 5.72, 24 hours, read-out: MIC (100% inhibition)): 1 µg/mL (≈ 1.37 µM)
MIC (pH 5.72, C. glabrata MRL 34407, pH 5.72, 24 hours, read-out: MIC (50% inhibition)): 0.5 µg/mL (≈ 0.685 µM)
MIC (pH 5.72, C. glabrata MRL 34407, pH 5.72, 24 hours, read-out: MIC (100% inhibition)): 1 µg/mL (≈ 1.37 µM)
MIC (pH 5.72, C. glabrata MRL 34576, pH 5.72, 24 hours, read-out: MIC (50% inhibition)): 0.5 µg/mL (≈ 0.685 µM)
MIC (pH 5.72, C. glabrata MRL 34576, pH 5.72, 24 hours, read-out: MIC (100% inhibition)): 1 µg/mL (≈ 1.37 µM)
MIC50 [1]: 1 µg/mL (≈ 1.37 µM)
MIC90 [1]: 1 µg/mL (≈ 1.37 µM)
MIC50 [2]: 1 µg/mL (≈ 1.37 µM)
MIC90 [2]: 2 µg/mL (≈ 2.74 µM)
MIC (pH 7, C. glabrata MRL 32075, pH 7.0, 24 hours, read-out: MIC (50% inhibition)): 0.5 µg/mL (≈ 0.685 µM)
MIC (pH 7, C. glabrata MRL 32075, pH 7.0, 24 hours, read-out: MIC (100% inhibition)): 1 µg/mL (≈ 1.37 µM)
MIC (pH 7, C. glabrata MRL 32232, pH 7.0, 24 hours, read-out: MIC (50% inhibition)): 1 µg/mL (≈ 1.37 µM)
MIC (pH 7, C. glabrata MRL 32232, pH 7.0, 24 hours, read-out: MIC (100% inhibition)): 1 µg/mL (≈ 1.37 µM)
MIC (pH 7, C. glabrata MRL 32626, pH 7.0, 24 hours, read-out: MIC (50% inhibition)): 0.5 µg/mL (≈ 0.685 µM)
MIC (pH 7, C. glabrata MRL 32626, pH 7.0, 24 hours, read-out: MIC (100% inhibition)): 1 µg/mL (≈ 1.37 µM)
MIC (pH 7, C. glabrata MRL 32993, pH 7.0, 24 hours, read-out: MIC (50% inhibition)): 0.5 µg/mL (≈ 0.685 µM)
MIC (pH 7, C. glabrata MRL 32993, pH 7.0, 24 hours, read-out: MIC (100% inhibition)): 1 µg/mL (≈ 1.37 µM)
MIC (pH 7, C. glabrata MRL 33204, pH 7.0, 24 hours, read-out: MIC (50% inhibition)): 1 µg/mL (≈ 1.37 µM)
MIC (pH 7, C. glabrata MRL 33204, pH 7.0, 24 hours, read-out: MIC (100% inhibition)): 1 µg/mL (≈ 1.37 µM)
MIC (pH 7, C. glabrata MRL 33960, pH 7.0, 24 hours, read-out: MIC (50% inhibition)): 0.5 µg/mL (≈ 0.685 µM)
MIC (pH 7, C. glabrata MRL 33960, pH 7.0, 24 hours, read-out: MIC (100% inhibition)): 1 µg/mL (≈ 1.37 µM)
MIC (pH 7, C. glabrata MRL 33961, pH 7.0, 24 hours, read-out: MIC (50% inhibition)): 1 µg/mL (≈ 1.37 µM)
MIC (pH 7, C. glabrata MRL 33961, pH 7.0, 24 hours, read-out: MIC (100% inhibition)): 1 µg/mL (≈ 1.37 µM)
MIC (pH 7, C. glabrata MRL 34339, pH 7.0, 24 hours, read-out: MIC (50% inhibition)): 1 µg/mL (≈ 1.37 µM)
MIC (pH 7, C. glabrata MRL 34339, pH 7.0, 24 hours, read-out: MIC (100% inhibition)): 1 µg/mL (≈ 1.37 µM)
MIC (pH 7, C. glabrata MRL 34407, pH 7.0, 24 hours, read-out: MIC (50% inhibition)): 1 µg/mL (≈ 1.37 µM)
MIC (pH 7, C. glabrata MRL 34407, pH 7.0, 24 hours, read-out: MIC (100% inhibition)): 2 µg/mL (≈ 2.74 µM)
MIC (pH 7, C. glabrata MRL 34576, pH 7.0, 24 hours, read-out: MIC (50% inhibition)): 1 µg/mL (≈ 1.37 µM)
MIC (pH 7, C. glabrata MRL 34576, pH 7.0, 24 hours, read-out: MIC (100% inhibition)): 2 µg/mL (≈ 2.74 µM)

Reference: patent US20260000656A1, “ANTIFUNGAL AGENTS WITH ENHANCED ACTIVITY IN ACIDIC PH” (Scynexis, Inc., priority 2017, published 2026)
